Molecular target: T1, BaqAΔC (Rossellomorea aquimaris, UniProt G8IJA7)
T1 construct: gene baqA
T1 sequence (G8IJA7 24-478): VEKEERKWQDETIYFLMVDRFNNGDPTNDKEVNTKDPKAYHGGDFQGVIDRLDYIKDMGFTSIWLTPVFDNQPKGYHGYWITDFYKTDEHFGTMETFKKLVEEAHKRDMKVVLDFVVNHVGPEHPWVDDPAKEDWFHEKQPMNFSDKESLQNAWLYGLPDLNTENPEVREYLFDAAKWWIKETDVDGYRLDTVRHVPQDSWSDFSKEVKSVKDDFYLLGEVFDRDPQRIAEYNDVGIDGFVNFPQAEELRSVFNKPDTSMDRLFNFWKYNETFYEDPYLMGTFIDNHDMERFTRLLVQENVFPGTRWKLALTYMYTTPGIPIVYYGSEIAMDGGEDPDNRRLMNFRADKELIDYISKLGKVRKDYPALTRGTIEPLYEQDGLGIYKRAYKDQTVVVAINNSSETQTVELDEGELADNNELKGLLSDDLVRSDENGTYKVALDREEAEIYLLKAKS
Test: intrinsic fluorescence quenching, modified Stern-Volmer plot
Format: binding
Details: 50 mM HEPES pH 8; 15 min at 50 °C, spectra at 25 °C; n = 1.3; acarbose 15-75 mM

- Ka: 0.032 mL/mg
SMILES: C[C@H]1O[C@H](O[C@H]2[C@H](O)[C@@H](O)[C@@H](O[C@H]3[C@H](O)[C@@H](O)C(O)O[C@@H]3CO)O[C@@H]2CO)[C@H](O)[C@@H](O)[C@@H]1N[C@H]1C=C(CO)[C@@H](O)[C@H](O)[C@H]1O (stereo partly shown) [acarbose]
